What was measured:
[1] = target: T1, Serine/threonine-protein kinase D2 (Homo sapiens) (UniProt Q9BZL6); assay: Selectivity interaction (KinomeScan (DiscoverX)) EUB0000229b PRKD2; conditions: at 10 µM
T1 sequence (whole entry): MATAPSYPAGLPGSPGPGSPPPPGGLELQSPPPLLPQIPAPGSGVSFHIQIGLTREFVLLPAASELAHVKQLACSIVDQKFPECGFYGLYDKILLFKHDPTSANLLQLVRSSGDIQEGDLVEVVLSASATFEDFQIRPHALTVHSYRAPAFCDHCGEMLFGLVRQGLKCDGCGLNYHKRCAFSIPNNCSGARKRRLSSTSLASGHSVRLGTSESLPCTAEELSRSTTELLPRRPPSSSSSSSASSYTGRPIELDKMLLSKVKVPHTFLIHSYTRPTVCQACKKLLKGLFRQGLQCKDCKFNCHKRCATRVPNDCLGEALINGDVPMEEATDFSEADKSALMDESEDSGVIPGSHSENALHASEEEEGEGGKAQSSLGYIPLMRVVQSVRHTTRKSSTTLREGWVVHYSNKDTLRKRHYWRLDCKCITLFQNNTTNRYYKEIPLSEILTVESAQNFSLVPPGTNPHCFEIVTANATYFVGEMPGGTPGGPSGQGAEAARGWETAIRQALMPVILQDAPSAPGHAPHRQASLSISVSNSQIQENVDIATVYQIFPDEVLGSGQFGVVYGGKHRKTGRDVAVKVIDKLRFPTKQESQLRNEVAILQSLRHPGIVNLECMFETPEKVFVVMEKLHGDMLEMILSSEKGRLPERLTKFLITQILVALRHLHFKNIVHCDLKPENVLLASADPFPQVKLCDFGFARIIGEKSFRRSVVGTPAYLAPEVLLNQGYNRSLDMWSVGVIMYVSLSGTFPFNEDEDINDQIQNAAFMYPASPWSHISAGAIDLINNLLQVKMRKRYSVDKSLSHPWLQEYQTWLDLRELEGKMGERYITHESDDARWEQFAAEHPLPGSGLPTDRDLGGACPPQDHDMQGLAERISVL

[2] = target: T2, Ephrin type-B receptor 2 (Homo sapiens) (UniProt P29323); assay: Selectivity interaction (Millipore kinase profiler) EUB0000124b EPHB2; conditions: at 10 µM
T2 sequence (whole entry): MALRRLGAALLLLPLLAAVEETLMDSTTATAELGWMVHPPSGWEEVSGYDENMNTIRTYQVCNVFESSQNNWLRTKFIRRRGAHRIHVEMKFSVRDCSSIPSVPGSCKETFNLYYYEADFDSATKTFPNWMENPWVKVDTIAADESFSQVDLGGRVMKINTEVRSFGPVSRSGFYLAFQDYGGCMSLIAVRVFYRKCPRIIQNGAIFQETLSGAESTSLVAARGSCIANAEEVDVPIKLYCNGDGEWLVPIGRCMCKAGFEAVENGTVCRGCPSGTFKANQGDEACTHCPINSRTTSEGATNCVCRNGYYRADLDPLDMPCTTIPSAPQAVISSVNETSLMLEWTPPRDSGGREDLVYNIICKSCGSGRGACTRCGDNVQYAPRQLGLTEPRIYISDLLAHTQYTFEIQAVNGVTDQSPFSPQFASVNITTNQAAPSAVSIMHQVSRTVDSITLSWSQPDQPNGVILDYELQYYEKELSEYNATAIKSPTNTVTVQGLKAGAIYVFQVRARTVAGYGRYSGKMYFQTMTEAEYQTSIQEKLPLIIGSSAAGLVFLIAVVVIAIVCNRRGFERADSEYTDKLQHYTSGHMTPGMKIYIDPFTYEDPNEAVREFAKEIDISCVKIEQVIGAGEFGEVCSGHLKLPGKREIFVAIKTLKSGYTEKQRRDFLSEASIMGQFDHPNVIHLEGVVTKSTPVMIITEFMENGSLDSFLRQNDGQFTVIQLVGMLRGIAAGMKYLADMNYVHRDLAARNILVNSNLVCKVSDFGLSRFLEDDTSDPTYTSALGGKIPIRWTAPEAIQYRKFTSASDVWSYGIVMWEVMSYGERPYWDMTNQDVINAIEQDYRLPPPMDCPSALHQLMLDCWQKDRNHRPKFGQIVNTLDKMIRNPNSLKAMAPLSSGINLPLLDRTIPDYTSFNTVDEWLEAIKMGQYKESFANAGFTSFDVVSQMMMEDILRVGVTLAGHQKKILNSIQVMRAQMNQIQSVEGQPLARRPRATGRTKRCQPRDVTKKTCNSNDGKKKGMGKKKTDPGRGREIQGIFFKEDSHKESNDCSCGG

[3] = target: T3, cGMP-dependent protein kinase 2 (Homo sapiens) (UniProt Q13237); assay: Selectivity interaction (Upstate Kinase Profiler service (Millipore)) EUB0000056c PRKG2; conditions: at 1 µM
T3 sequence (whole entry): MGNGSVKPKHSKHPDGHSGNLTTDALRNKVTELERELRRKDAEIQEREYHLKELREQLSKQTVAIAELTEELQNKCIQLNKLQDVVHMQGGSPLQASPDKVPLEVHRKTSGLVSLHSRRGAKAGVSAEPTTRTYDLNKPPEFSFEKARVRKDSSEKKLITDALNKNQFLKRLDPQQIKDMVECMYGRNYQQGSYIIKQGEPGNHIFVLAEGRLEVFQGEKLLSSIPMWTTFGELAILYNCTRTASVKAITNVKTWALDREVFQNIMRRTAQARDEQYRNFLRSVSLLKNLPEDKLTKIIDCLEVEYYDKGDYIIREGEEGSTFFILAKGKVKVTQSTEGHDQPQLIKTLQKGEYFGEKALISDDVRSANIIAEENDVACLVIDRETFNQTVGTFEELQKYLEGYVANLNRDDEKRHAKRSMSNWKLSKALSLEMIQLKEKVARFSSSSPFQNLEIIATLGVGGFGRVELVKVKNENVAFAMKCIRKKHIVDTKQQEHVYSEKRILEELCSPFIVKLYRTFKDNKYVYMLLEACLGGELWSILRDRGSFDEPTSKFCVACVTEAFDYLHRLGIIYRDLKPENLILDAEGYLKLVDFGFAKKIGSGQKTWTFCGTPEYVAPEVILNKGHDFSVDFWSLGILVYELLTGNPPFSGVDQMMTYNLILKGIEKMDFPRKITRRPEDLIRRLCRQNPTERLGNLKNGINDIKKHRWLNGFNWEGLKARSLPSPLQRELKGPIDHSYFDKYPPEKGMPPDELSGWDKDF

[4] = target: STE20-like serine/threonine-protein kinase (Homo sapiens, UniProt Q9H2G2); assay: Selectivity interaction (ActivX KiNativ screen (kinase selectivity in THP-1 cell lysates)) EUB0000639a SLK; format: subcellular; conditions: lysate, at 0.01 µM
STE20-like serine/threonine-protein kinase, sequence (Q9H2G2 whole entry, looked up): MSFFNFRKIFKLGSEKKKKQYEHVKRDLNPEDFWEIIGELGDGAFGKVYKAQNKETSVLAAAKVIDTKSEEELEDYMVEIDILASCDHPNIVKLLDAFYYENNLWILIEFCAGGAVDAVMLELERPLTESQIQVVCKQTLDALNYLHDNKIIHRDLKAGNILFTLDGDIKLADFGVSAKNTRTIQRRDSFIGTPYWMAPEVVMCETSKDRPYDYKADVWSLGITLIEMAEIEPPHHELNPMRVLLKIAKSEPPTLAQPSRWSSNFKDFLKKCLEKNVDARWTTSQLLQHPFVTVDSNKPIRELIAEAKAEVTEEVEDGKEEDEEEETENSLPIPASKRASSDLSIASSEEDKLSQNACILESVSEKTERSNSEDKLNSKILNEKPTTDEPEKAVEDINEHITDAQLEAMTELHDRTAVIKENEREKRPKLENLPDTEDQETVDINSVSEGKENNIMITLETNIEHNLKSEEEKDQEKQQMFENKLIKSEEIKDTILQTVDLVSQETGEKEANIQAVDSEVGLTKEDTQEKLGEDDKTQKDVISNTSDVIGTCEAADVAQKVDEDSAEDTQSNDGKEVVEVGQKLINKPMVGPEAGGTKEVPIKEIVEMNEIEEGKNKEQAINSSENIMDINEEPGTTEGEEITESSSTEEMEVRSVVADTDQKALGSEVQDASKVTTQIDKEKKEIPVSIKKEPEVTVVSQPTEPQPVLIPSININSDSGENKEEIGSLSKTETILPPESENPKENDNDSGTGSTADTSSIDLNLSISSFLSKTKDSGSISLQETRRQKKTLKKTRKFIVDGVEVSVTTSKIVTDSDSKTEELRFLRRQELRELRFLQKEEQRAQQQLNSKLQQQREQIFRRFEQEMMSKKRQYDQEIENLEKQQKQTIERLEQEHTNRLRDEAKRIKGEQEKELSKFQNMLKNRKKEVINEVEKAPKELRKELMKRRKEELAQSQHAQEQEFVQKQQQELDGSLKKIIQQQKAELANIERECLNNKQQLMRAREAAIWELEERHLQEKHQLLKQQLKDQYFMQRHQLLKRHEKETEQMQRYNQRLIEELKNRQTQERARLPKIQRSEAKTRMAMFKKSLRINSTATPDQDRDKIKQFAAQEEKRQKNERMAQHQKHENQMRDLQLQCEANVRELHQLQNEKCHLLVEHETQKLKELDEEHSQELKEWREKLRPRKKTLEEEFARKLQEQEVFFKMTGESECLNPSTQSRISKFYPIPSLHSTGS

Work on `COc1cc(N(C)c2ccnc3ccc(C(F)(F)F)cc23)cc(OC)c1OC` yielded a % binding [1] of 90%.

`CC(=O)Nc1cccc(-n2c(=O)n(C3CC3)c(=O)c3c(Nc4ccc(I)cc4F)n(C)c(=O)c(C)c32)c1` gave a % of control [2] of 107%.

`Cc1ccc(-c2ccc3c(ccc4sc5c(c43)NC[C@@H](C)NC5=O)n2)cn1` was tested, and the % of inhibition [3] was -6%.

`CC[C@@H]1[C@H](F)C(=O)N[C@@H]1COc1nccc2cc(C(N)=O)c(OC)cc12` [ZIMLOVISERTIB] was tested, and the % of inhibition [4] was -0.7%.

From ChEMBL document CHEMBL5465560, “Selectivity Literature for EUbOPEN Chemogenomic Library” (2024)
